1 compound from patent US20240165188A1, “Method for the treatment of microbial overgrowth, imbalance and infections” (TRINUTRA LTD., priority 2021, published 2024) can be followed below.

The test concerns C. albicans (Robin) Berkhout (ATCC catalogue no. 96901), fluconazole resistant. Nature of the test: Disc diffusion assay, inhibition of Candida albicans growth on agar. The test is classed as cell-based. Conditions: C. albicans fluconazole-resistant strain; undiluted (100%); 24 hours; FIG. 2. How it is done: A frozen stock of C. albicans (Robin) Berkhout (ATCC catalogue no. 96901) was thawed and incubated at 25 degrees Celsius for 72 hours in 200 YM medium. Following dilution 1:10, the culture was incubated for a further 24 hours. Following further dilution (1:10), the culture is grown for an additional 3 hours prior to use.
Antibiotic assay discs (Whatman discs, supplied by Sigma-Aldrich) were prepared in advance by means of saturating them with the test solutions and controls.
Agar plates were prepared and labelled as described in Example 1, above. The plates were then incubated at 25° C. and the area of inhibited fungal growth was measured and photographed after 24 hours.
• 1. Black seed oil 3% thymoquinone (TQ), 2% FFA. • 2. Black seed oil 3% thymoquinone (TQ), 10% FFA. • 3. Black seed oil 0.5% thymoquinone (TQ), 2% FFA. • 4. Black seed oil 0.5% thymoquinone (TQ), 10% FFA. • 5. Black seed oil 1.8% thymoquinone (TQ), 2% FFA formulation
• 6. Negative control (empty discs) • 7. Positive control I (0.05% zinc pyrithione). • 8. Positive control II (100 micrograms fluconazole)
All concentrations given above are w/w concentrations. The various black seed oil preparations were cold-pressed Nigella sativa oils obtained from NS Oils Ltd. (Kibbutz Sa'ad, Israel).
Each of the 5 test substances (at a concentration of 100%, i.e., undiluted) was assayed for antifungal activity, as described above.
Background: In agar diffusion tests the substance spreads into inoculated agar from a disc or well.

As to `OC(Cn1cncn1)(Cn1cncn1)c1ccc(F)cc1F` [fluconazole], the “size of the fungal inhibition zones (antifungal effect)” value is “lack of inhibitory activity”.
